Data: patent publication US20170275666A1, “Methods for Preparing Rebaudioside I and Uses” (The Coca-Cola Company, priority 2014, published 2017)
Where “and” joins values, the source holds several entries; their conditions need not be identical. Identical values can stand only once.

Columns and labels:
[1] = Taste properties of beverage formulations (flavored black tea, enhanced water, lemon-lime flavored sparkling beverage); type: in vivo
Experimental: Reb I levels are evaluated in an zero calorie Lemon-lime-flavored sparking beverage base to determine the effect of increasing sweetness. Samples of the Lemon-lime-flavored sparkling beverage with Reb I in amounts between 400 and 750 ppm (in 50 ppm increments) and 3.5% allulose are prepared. […] Samples having 550 ppm and 600 ppm Reb I are found to be the closest in sweetness level to an 10.0 Brix HFCS sweetened Lemon-lime flavored sparkling beverage formulation.

[2] = Sensory characteristics of rebaudioside I compared to rebaudioside M (taste panel); type: in vivo; conditions: 400 ppm in water, approximately 4° C., seven panelists
Experimental: Rebaudioside I was evaluated to determine its sensory profile, including in comparison to rebaudioside M.
Samples were prepared at a concentration of 400 ppm in a water matrix. Analysis to determine the actual concentration of the samples was preformed.
Seven panelists participated in testing of rebaudioside I and rebaudioside M. Samples were served at approximately 4° C. Panelists were instructed to take 1 sip of the sample (10 mL), hold in mouth for 5 seconds, expectorate and rate the taste attributes, as described below. A 5 minute break was placed between each sample and panelist were instructed to cleanse their palates with at least 1 bite of an unsalted cracker and 2 sips of filtered water. Samples were randomized and each sample was present in replicate in the session.
Attributes evaluated included: sweet taste intensity (maximum level of sweeteness in mouth during 5 seconds); bitter taste intensity (maximum level of bitterness in mouth during 5 seconds); overall maximum sweet intensity (maximum sweet intensity experienced from time sip is taken up to 1 minute); overall maximum bitter intensity (maximum bitter intensity experienced from time sip is taken up to 1 minute); other intensity (intensity of any taste, aromatic or mouth feel other than sweet and bitter (e.g., metallic, plastic, licorice, etc.); sweet linger intensity (sweet intensity 1 minute after expectoring the sample); and bitter aftertaste intensity (bitter intensity one minute after expectoring the sample).
Fishers LSD was used to compare significant differences between the mean scores.

[3] = Catalytic reaction with in-vivo produced UGT76G1, stevioside to rebaudioside A; type: biochemical; conditions: 0.5 mM Stevioside, 2.5 mM UDP-glucose, thawed lysate, 30° C., HPLC (CAD)
Experimental: The total volume of the reaction was 5.0 mL with the following composition: 50 mM sodium phosphate buffer pH 7.2, 3 mM MgCl2, 2.5 mM UDP-glucose, 0.5 mM Stevioside and 500 μL of UGT76G1 thawed lysate. The reactions were run at 30° C. on an orbitary shaker at 135 rpm. For each sample, 460 μL of the reaction mixture was quenched with 40 μL of 2N H2SO4 and 420 μL of methanol/water (6/4). The samples were immediately centrifuged and kept at 10° C. before analysis by HPLC (CAD).

[4] = Directed evolution of UGT76G1, conversion of Rebaudioside D to Rebaudioside M (Round 2), normalized to Round1-Var94; type: biochemical; conditions: round 2 clones; baseline clone Round1-Var94 defined as 100%; lysate, Rebaudioside D 0.5 mM, UDP-Glucose 2.5 mM, 30° C., pH 7.2, HPLC
Description: A list of 53 mutations was established containing different identified positive mutations from the first round and new mutations obtained by DNA2.0 ProteinGPS™ strategy. This list of mutations was subsequently used to design 92 variant genes that contained each 3 different mutations. After codon-optimized for expression in E. coli the genes were synthesized, subcloned in the pET30a+ plasmid and used for transformation of E. coli BL21 (DE3) chemically competent cells. The obtained cells were grown in Petri-dishes on solid LB medium in the presence of Kanamycin. Suitable colonies were selected and allowed to grow in liquid LB medium in tubes. Glycerol was added to the suspension as cryoprotectant and 400 μL aliquots were stored at −20° C. and at −80° C.
These storage aliquots of E. coli BL21(DE3) containing the pET30a+_UGT76G1var plasmids were thawed and added to LBGKP medium (20 g/L Luria Broth Lennox; 50 mM PIPES buffer pH 7.00; 50 mM Phosphate buffer pH 7.00; 2.5 g/L glucose and 50 mg/L of Kanamycine). This culture was allowed to shake in a 96 microtiter plate at 30° C. for 8 h.
3.95 mL of production medium containing 60 g/L of Overnight Express™ Instant TB medium (Novagen®), 10 g/L of glycerol and 50 mg/L of Kanamycin was inoculated with 50 μL of above described culture. In a 48 deepwell plate the resulting culture was allowed to stir at 20° C. […]

[5] = Directed evolution of UGT76G1, conversion of Rebaudioside D to Rebaudioside M (round 1); type: biochemical; conditions: 0.5 mM Rebaudioside D, 2.5 mM UDP-Glucose, 100 μL fresh lysate, 30° C., pH 7.2
In short: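 UGT76G1 variants carrying 3-5 designed mutations were expressed in E. coli BL21(DE3) (pET30a+, 44 h at 20° C) and lysed. Lysate was reacted with 0.5 mM Reb D, 2.5 mM UDP-glucose, 3 mM MgCl2 in 50 mM phosphate pH 7.2 at 30° C; HPLC-CAD sampling at 2, 4, 7, 24 h gave conversion and initial rate.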

[6] = Activity of in-vivo preparations of UGT91D2, transformation of Rubusoside to Stevioside; type: biochemical; conditions: per mL of lysate, 30° C., pH 7.2
Experimental: Activity tests were performed at 5 mL scale with 1000 μL of lysate for the transformation of Rubusoside to Stevioside using 0.5 mM of substrate, 2.5 mM of UDP-Glucose and 3 mM MgCl2 in 50 mM Sodium Phosphate buffer at pH 7.2. Samples were taken and analyzed by HPLC.

C=C1C[C@@]23CC[C@H]4[C@@](C)(CCC[C@@]4(C)C(=O)OC4OC(CO)C(O)C(OC5OC(CO)C(O)C(O)C5O)C4O)[C@@H]2CCC1(OC1OC(CO)C(O)C(OC2OC(CO)C(O)C(O)C2O)C1OC1OC(CO)C(O)C(O)C1O)C3 (some centres unmarked) [Reb I]
taste properties compared to Reb A drink ([1]; flavored zero calorie black tea drink, 275 ppm): much cleaner in finish with less sweetness linger and a more rounded overall sweetness profile | Reb I concentration closest in sweetness level to 10.0 Brix HFCS sweetened Lemon-lime flavored sparkling beverage ([1]; zero calorie Lemon-lime-flavored sparkling beverage with 3.5% allulose): 550 ppm and 600 ppm | taste compared to Reb A-containing formulations ([1]; zero calorie Lemon-lime-flavored sparkling beverage, 400 to 750 ppm Reb I and 3.5% allulose): significantly better than comparable Reb A-containing formulations | taste properties compared to Reb A drink ([1]; zero calorie enhanced water drink, 200 ppm): cleaner in finish and has a reduced sweetness linger and a more rounded overall sweetness taste quality | Bitter Aftertaste Intensity [2]: 1.3 | Bitter Taste Intensity [2]: 1.4 | Other Intensity [2]: 1.3 | Overall Max Bitterness Intensity [2]: 2.1 | Overall Max Sweetness Intensity [2]: 7.2 | Sweet Linger Intensity [2]: 3.5 | Sweet Taste Intensity [2]: 5.9 | Overall Max Sweetness Intensity ([2]; listed as Rebaudioside I): lower | Sweet Linger Intensity ([2]; listed as Rebaudioside I): lower | Sweet Taste Intensity ([2]; listed as Rebaudioside I): lower

B1: UGT76G1: UDP-glycosyltransferase from Stevia rebaudiana (Genbank AAR06912.1), in-vivo produced lysate (protein, UniProt Q6VAB4 1-458, looked up)
UDP-glycosyltransferase 76G1: MENKTETTVRRRRRIILFPVPFQGHINPILQLANVLYSKGFSITIFHTNFNKPKTSNYPHFTFRFILDNDPQDERISNLPTHGPLAGMRIPIINEHGADELRRELELLMLASEEDEEVSCLITDALWYFAQSVADSLNLRRLVLMTSSLFNFHAHVSLPQFDELGYLDPDDKTRLEEQASGFPMLKVKDIKSAYSNWQILKEILGKMIKQTKASSGVIWNSFKELEESELETVIREIPAPSFLIPLPKHLTASSSSLLDHDRTVFQWLDQQPPSSVLYVSFGSTSEVDEKDFLEIARGLVDSKQSFLWVVRPGFVKGSTWVEPLPDGFLGERGRIVKWVPQQEVLAHGAIGAFWTHSGWNSTLESVCEGVPMIFSDFGLDQPLNARYMSDVLKVGVYLENGWERGEIANAIRRVMVDEEGEYIRQNARVLKQKADVSLMKGGSSYESLESLVSYISSL
modifications: cell lysate
notes: UDP-glycosyltransferase from Stevia rebaudiana (Genbank AAR06912.1), in-vivo produced lysate
conversion of stevioside to rebaudioside A [3]: almost complete conversion

B2: UGT76G1var94: UGT76G1 variant, mutations Q266E_P272A_R334K_G348P_L379G; most active round 1 clone (protein, UniProt Q6VAB4 1-458, looked up, variant Q266E P272A R334K G348P L379G)
UDP-glycosyltransferase 76G1: MENKTETTVRRRRRIILFPVPFQGHINPILQLANVLYSKGFSITIFHTNFNKPKTSNYPHFTFRFILDNDPQDERISNLPTHGPLAGMRIPIINEHGADELRRELELLMLASEEDEEVSCLITDALWYFAQSVADSLNLRRLVLMTSSLFNFHAHVSLPQFDELGYLDPDDKTRLEEQASGFPMLKVKDIKSAYSNWQILKEILGKMIKQTKASSGVIWNSFKELEESELETVIREIPAPSFLIPLPKHLTASSSSLLDHDRTVFEWLDQQAPSSVLYVSFGSTSEVDEKDFLEIARGLVDSKQSFLWVVRPGFVKGSTWVEPLPDGFLGERGKIVKWVPQQEVLAHPAIGAFWTHSGWNSTLESVCEGVPMIFSDFGGDQPLNARYMSDVLKVGVYLENGWERGEIANAIRRVMVDEEGEYIRQNARVLKQKADVSLMKGGSSYESLESLVSYISSL
Normalized conversion Reb D to Reb M after 22 h. [4]: 100% | Normalized initial rate (0-4 h) [4]: 100% | Conversion Reb D to Reb M after 24 h (%) [5]: 72.0% | initial rate (Reb M area/min) [5]: 7.9E+07 Reb M area/min

B3: UGT91D2: UDP-glucosyltransferase (Genbank ACE87855.1) produced in E. coli, tested as lysate (protein, UniProt B3VI56 1-473, looked up)
UDP-glycosyltransferase 91D2: MATSDSIVDDRKQLHVATFPWLAFGHILPYLQLSKLIAEKGHKVSFLSTTRNIQRLSSHISPLINVVQLTLPRVQELPEDAEATTDVHPEDIPYLKKASDGLQPEVTRFLEQHSPDWIIYDYTHYWLPSIAASLGISRAHFSVTTPWAIAYMGPSADAMINGSDGRTTVEDLTTPPKWFPFPTKVCWRKHDLARLVPYKAPGISDGYRMGLVLKGSDCLLSKCYHEFGTQWLPLLETLHQVPVVPVGLLPPEVPGDEKDETWVSIKKWLDGKQKGSVVYVALGSEVLVSQTEVVELALGLELSGLPFVWAYRKPKGPAKSDSVELPDGFVERTRDRGLVWTSWAPQLRILSHESVCGFLTHCGSGSIVEGLMFGHPLIMLPIFGDQPLNARLLEDKQVGIEIPRNEEDGCLTKESVARSLRSVVVEKEGEIYKANARELSKIYNDTKVEKEYVSQFVDYLEKNTRAVAIDHES
modifications: E. coli lysate
notes: UDP-glucosyltransferase (Genbank ACE87855.1) produced in E. coli, tested as lysate
Transformation activity Rubusoside to Stevioside ([6]; plasmid pET30a+, expression strain ArcticExpress (DE3)): 21 mU mL^−1 | Transformation activity Rubusoside to Stevioside ([6]; plasmid pET30a+, expression strain Tuner (DE3)): 28 mU mL^−1 | Transformation activity Rubusoside to Stevioside ([6]; plasmid pMAL, expression strain ArcticExpress): 60 mU mL^−1 | Transformation activity Rubusoside to Stevioside ([6]; plasmid pMAL, expression strain BL21): 9 mU mL^−1
